Experimental data published in US10351718B2, “Optical filter and imaging device” (AGC Inc., priority 2015, dated 2019).

What was measured:
[1] = Absorption characteristic of the dye in dichloromethane; assay type: physicochemical; conditions: for λ80 (wavelength with 80% transmittance on shorter wavelength side of λmax) / λmax − λ80: dichloromethane, transmittance at λmax set to 10%; for εA (maximum absorption coefficient in a wavelength of 430 to 550 nm) / εB (maximum absorption coefficient in a wavelength of 670 to 730 nm) / εB/εA / λmax (maximum absorption wavelength): dissolved in dichloromethane
Experimental: The dyes obtained above were each dissolved in dichloromethane, and using an ultraviolet-visible spectrophotometer (made by Hitachi High Technologies Co., Ltd., U-4100 type), each spectral transmittance curve was measured, from which a maximum absorption wavelength λmax, a wavelength λ80 with which the transmittance becomes 80% on a shorter wavelength side than the maximum absorption wavelength with the transmittance at the maximum absorption wavelength set to 10%, the difference between the maximum absorption wavelength λmax and the wavelength λ80 (λmax−λ80), a maximum absorption coefficient εA in a wavelength of 430 to 550 nm, a maximum absorption coefficient εB in a wavelength of 670 to 730 nm, and a ratio of these (εB/εA) were calculated. Note that measurement of the dye (A9) was not performed because its solubility was low. Further, for each of the following spectral transmittance curves, an ultraviolet-visible spectrophotometer (made by Hitachi High Technologies Co., Ltd., U-4100 type) was used.

[2] = Solubility of dye to resin solution; assay type: physicochemical; conditions: for Solubility Evaluation / Solubility: 12.5 mass % polyester resin OKP850 in cyclohexanone:MIBK 1:1, 50° C.; for Solubility: stirred two hours, visual; for Solubility to the resin solution (in words): polyester resin OKP850 solution, 50° C., compared to dyes without branch structure in R^1
Experimental: Regarding several kinds of the dyes obtained above, solubility to a resin solution was evaluated. In a solubility test, as the resin solution, there was used a solution having a resin concentration of 12.5 mass % that was prepared by dissolving a polyester resin (product name: OKP850 made by Osaka Gas Chemicals Co., Ltd.) in a mixed solvent (cyclohexanone:methyl isobutyl ketone (MIBK)=1:1). Results are illustrated in Table 5 together with the kinds of the used dyes. Incidentally, the temperature of the resin solution in the solubility test was 50° C., the dye was put into the resin solution, the resultant resin solution was stirred for two hours, and whether or not the dye was dissolved was observed visually. Evaluation criteria of the solubility are as follows.
A: Solubility greater than 10 mass %
B: Solubility greater than 5 mass % and 10 mass % or less
C: Solubility 5 mass % or less

λ80 (wavelength with 80% transmittance on shorter wavelength side of λmax) [1]	λmax − λ80 [1]	εA (maximum absorption coefficient in a wavelength of 430 to 550 nm) [1]	εB (maximum absorption coefficient in a wavelength of 670 to 730 nm) [1]	εB/εA [1]	λmax (maximum absorption wavelength) [1]	Solubility Evaluation [2]	Solubility [2]	Solubility to the resin solution (in words) [2]	SMILES
646 nm	52 nm	0.0112	1	89.3	698 nm	A (greater than 10 mass %)	15 mass %	high solubility	CCCCCCCCS(=O)(=O)Nc1cc2c(cc1C1=C([O-])C(=c3cc4c(cc3NS(=O)(=O)CCCCCCCC)=[N+](C(C)C)C(C)C4(C)C)C1=O)C(C)(C)C(C)N2C(C)C (stereo not shown) [Dye A1-15]
651 nm	52 nm	0.0082	1	122	703 nm	A (greater than 10 mass %)	12 mass %	high solubility	CC(C)N1c2cc(NS(=O)(=O)C(F)(F)F)c(C3=C([O-])C(=c4cc5c(cc4NS(=O)(=O)C(F)(F)F)=[N+](C(C)C)C(C)C5(C)C)C3=O)cc2C(C)(C)C1C (stereo not shown) [Dye A1-9]
656 nm	49 nm	0.0143	1	69.9	705 nm	A (greater than 10 mass %)	12 mass %	high solubility	CCCCCCCCS(=O)(=O)Nc1cc2c(cc1C1=C([O-])C(=c3cc4c(cc3NS(=O)(=O)CCCCCCCC)=[N+](C(C)(C)CC)C(C)C4(C)C)C1=O)C(C)(C)C(C)N2C(C)(C)CC (stereo not shown) [Dye A1-21]
630 nm	61 nm	0.0130	1	76.9	691 nm	C (5 mass % or less)	1 mass %	–	CCCCCCCCS(=O)(=O)Nc1cc2c(cc1C1=C([O-])C(=c3cc4c(cc3NS(=O)(=O)CCCCCCCC)=[N+](C)C(C)C4(C)C)C1=O)C(C)(C)C(C)N2C (stereo not shown) [Dye A1-1]
634 nm	63 nm	0.0066	1	152	697 nm	C (5 mass % or less)	5 mass %	–	CC1N(C)c2cc(NS(=O)(=O)C(F)(F)F)c(C3=C([O-])C(=c4cc5c(cc4NS(=O)(=O)C(F)(F)F)=[N+](C)C(C)C5(C)C)C3=O)cc2C1(C)C (stereo not shown) [Dye A1-2]
648 nm	52 nm	0.0110	1	90.9	700 nm	–	–	–	CC(C)N1c2cc(NS(=O)(=O)c3ccc(F)cc3)c(C3=C([O-])C(=c4cc5c(cc4NS(=O)(=O)c4ccc(F)cc4)=[N+](C(C)C)C(C)C5(C)C)C3=O)cc2C(C)(C)C1C (stereo not shown) [Dye A1-11]
637 nm	61 nm	0.0065	1	154	698 nm	–	–	–	CC1N(C)c2cc(NS(=O)(=O)C(F)(F)C(F)(F)C(F)(F)C(F)(F)F)c(C3=C([O-])C(=c4cc5c(cc4NS(=O)(=O)C(F)(F)C(F)(F)C(F)(F)C(F)(F)F)=[N+](C)C(C)C5(C)C)C3=O)cc2C1(C)C (stereo not shown) [Dye A1-3]
